Measured values from patent publication US20140073639A1 (priority 2012, published 2014).

Legend:
B. Anthracis = test: microbe, parasite or virus in culture; format: cell-based; conditions: for inhibition at 3 µM / inhibition at 10 µM / inhibition at 30 µM: Bacillus anthracis; for inhibition at 3 µM: read-out: B. Anthracis 3 μM (growth inhibition); for inhibition at 10 µM: read-out: B. Anthracis 10 μM (growth inhibition); for inhibition at 30 µM: read-out: B. Anthracis 30 μM (growth inhibition)
S. MRSA = test: microbe, parasite or virus in culture; format: cell-based; conditions: for inhibition at 3 µM / inhibition at 10 µM / inhibition at 30 µM: Staphylococcus aureus, MRSA; for inhibition at 3 µM: read-out: S. MRSA 3 μM (growth inhibition); for inhibition at 10 µM: read-out: S. MRSA 10 μM (growth inhibition); for inhibition at 30 µM: read-out: S. MRSA 30 μM (growth inhibition)

Structure (SMILES): CCc1ccccc1N1C(=O)/C(=C/c2ccc(-c3cc(C(=O)O)ccc3Cl)o2)C(=O)NC1=S [Cmpd 24]
- inhibition at 3 µM (B. Anthracis): -10.8%
- inhibition at 10 µM (B. Anthracis): -4.63%
- inhibition at 30 µM (B. Anthracis; 30 μM): -10.8%
- inhibition at 3 µM (S. MRSA): -2.94%
- inhibition at 10 µM (S. MRSA; 10 μM): 2.2%
- inhibition at 30 µM (S. MRSA; 30 μM): -5.88%

Structure (SMILES): COc1ccc(-c2ccc(/C=C3/NC(=S)N(C(Cc4ccccc4)C(=O)O)C3=O)s2)cc1 (stereo not drawn) [Cmpd 33]
- inhibition at 3 µM (B. Anthracis): -3.85%
- inhibition at 10 µM (B. Anthracis): 0%
- inhibition at 30 µM (B. Anthracis; 30 μM): 100%
- inhibition at 3 µM (S. MRSA): -2.94%
- inhibition at 10 µM (S. MRSA; 10 μM): -13.2%
- inhibition at 30 µM (S. MRSA; 30 μM): 18.5%

Structure (SMILES): O=C1NC(=S)N(c2cccc(Cl)c2)C(=O)/C1=C/c1ccc(-c2cc(C(=O)O)ccc2Cl)o1 [Cmpd 25]
- inhibition at 3 µM (B. Anthracis): -10.8%
- inhibition at 10 µM (B. Anthracis): -3.09%
- inhibition at 30 µM (B. Anthracis; 30 μM): -3.09%
- inhibition at 3 µM (S. MRSA): -2.21%
- inhibition at 10 µM (S. MRSA; 10 μM): -4.41%
- inhibition at 30 µM (S. MRSA; 30 μM): -5.15%

Structure (SMILES): O=C1NC(=S)N(c2ccc(Cl)cc2)C(=O)/C1=C/c1ccc(-c2ccccc2C(=O)O)o1 [Cmpd 26]
- inhibition at 3 µM (B. Anthracis): 2.32%
- inhibition at 10 µM (B. Anthracis): 97%
- inhibition at 30 µM (B. Anthracis; 30 μM): 100%
- inhibition at 3 µM (S. MRSA): 1.47%
- inhibition at 10 µM (S. MRSA; 10 μM): 16.1%
- inhibition at 30 µM (S. MRSA; 30 μM): 92.4%

Structure (SMILES): O=C(O)C(Cc1ccccc1)N1C(=O)/C(=C\c2ccc(-c3ccc(F)cc3)s2)NC1=S (stereo not drawn) [Cmpd 34]
- inhibition at 3 µM (B. Anthracis): 0%
- inhibition at 10 µM (B. Anthracis): 6.99%
- inhibition at 30 µM (B. Anthracis; 30 μM): 98.8%
- inhibition at 3 µM (S. MRSA): -15.8%
- inhibition at 10 µM (S. MRSA; 10 μM): -24.8%
- inhibition at 30 µM (S. MRSA; 30 μM): 46.2%

Structure (SMILES): CCOc1cccc(N2C(=O)/C(=C/c3ccc(-c4cc(C(=O)O)ccc4Cl)o3)C(=O)NC2=S)c1 [Cmpd 27]
- inhibition at 3 µM (B. Anthracis): -9.26%
- inhibition at 10 µM (B. Anthracis): 0%
- inhibition at 30 µM (B. Anthracis; 30 μM): -11.6%
- inhibition at 3 µM (S. MRSA): 0.74%
- inhibition at 10 µM (S. MRSA; 10 μM): 8.82%
- inhibition at 30 µM (S. MRSA; 30 μM): -0.74%

Structure (SMILES): O=C(O)C(Cc1ccccc1)N1C(=O)/C(=C\c2ccc(-c3ccc(Br)cc3)o2)NC1=S (stereo not drawn) [Cmpd 39]
- inhibition at 3 µM (B. Anthracis): 72.6%
- inhibition at 10 µM (B. Anthracis): 98.8%
- inhibition at 30 µM (B. Anthracis; 30 μM): 98.8%
- inhibition at 3 µM (S. MRSA): -9.55%
- inhibition at 10 µM (S. MRSA; 10 μM): 92.5%
- inhibition at 30 µM (S. MRSA; 30 μM): 95.4%

Structure (SMILES): O=C(O)C(Cc1ccccc1)N1C(=O)/C(=C\c2ccc(-c3ccc(Br)c(Cl)c3)o2)NC1=S (stereo not drawn) [Cmpd 40]
- inhibition at 3 µM (B. Anthracis): 98.1%
- inhibition at 10 µM (B. Anthracis): 98.1%
- inhibition at 30 µM (B. Anthracis; 30 μM): 98.1%
- inhibition at 3 µM (S. MRSA): 17.9%
- inhibition at 10 µM (S. MRSA; 10 μM): 95.7%
- inhibition at 30 µM (S. MRSA; 30 μM): 95.7%

Structure (SMILES): COc1ccc(N2C(=O)/C(=C/c3ccc(Br)s3)C(=O)NC2=S)cc1 [Cmpd 11]
- inhibition at 10 µM (B. Anthracis): 16.2%
- inhibition at 30 µM (B. Anthracis; 30 μM): 47.3%
- inhibition at 10 µM (S. MRSA; 10 μM): 14.8%
- inhibition at 30 µM (S. MRSA; 30 μM): 42.6%

Structure (SMILES): O=C1NC(=S)NC(=O)C1=Cc1ccc(-c2ccc(Br)c(Cl)c2)o1 [Cmpd 9]
- inhibition at 10 µM (B. Anthracis): 28%
- inhibition at 30 µM (B. Anthracis; 30 μM): 88.4%
- inhibition at 10 µM (S. MRSA; 10 μM): 19%
- inhibition at 30 µM (S. MRSA; 30 μM): -4.22%

Structure (SMILES): O=C(O)C(Cc1ccccc1)N1C(=O)/C(=C\c2ccc(Br)s2)NC1=S (stereo not drawn) [Cmpd 37]
- inhibition at 30 µM (B. Anthracis; 30 μM): 0%
- inhibition at 30 µM (S. MRSA; 30 μM): -6.27%

Structure (SMILES): O=C(O)C(Cc1ccccc1)N1C(=O)/C(=C\c2ccc(-c3ccc(Cl)c(Cl)c3)s2)NC1=S (stereo not drawn) [Cmpd 50]
- inhibition at 3 µM (B. Anthracis): 1.03%
- inhibition at 10 µM (B. Anthracis): 108%
- inhibition at 30 µM (B. Anthracis; 30 μM): 94.2%
- inhibition at 3 µM (S. MRSA): -14.6%
- inhibition at 10 µM (S. MRSA; 10 μM): 14.3%
- inhibition at 30 µM (S. MRSA; 30 μM): 35.6%

Structure (SMILES): CN1C(=O)C(Cc2ccc(-c3ccc(Cl)c(Cl)c3)o2)C(=O)N(C)C1=O [Cmpd 23]
- inhibition at 3 µM (B. Anthracis): -8.49%
- inhibition at 10 µM (B. Anthracis): 1.54%
- inhibition at 30 µM (B. Anthracis; 30 μM): 10.7%
- inhibition at 3 µM (S. MRSA): -8.09%
- inhibition at 10 µM (S. MRSA; 10 μM): -7.35%
- inhibition at 30 µM (S. MRSA; 30 μM): 0%

Structure (SMILES): CC(C)C(C(=O)O)N1C(=O)/C(=C2/C(=O)Nc3ccccc32)SC1=S (stereo not drawn) [Cmpd 5]
- B. Anthracis 10 μM (growth inhibition) (B. Anthracis): −1.33
- inhibition at 30 µM (B. Anthracis; 30 μM): 11.2%
- inhibition at 10 µM (S. MRSA; 10 μM): 15.9%
- inhibition at 30 µM (S. MRSA; 30 μM): 40.6%

Structure (SMILES): COc1ccc(-c2nnc(-c3ccccc3)o2)cc1S(=O)(=O)Nc1cc2c(cc1C#N)OCO2 [Cmpd 7]
- inhibition at 10 µM (B. Anthracis): 19.6%
- inhibition at 30 µM (B. Anthracis; 30 μM): 74.9%
- inhibition at 10 µM (S. MRSA; 10 μM): -7.79%
- inhibition at 30 µM (S. MRSA; 30 μM): -1.62%

Structure (SMILES): O=C(O)CCCCCN1C(=O)/C(=C2/C(=O)Nc3ccc(Br)cc32)SC1=S [Cmpd 4]
- inhibition at 10 µM (B. Anthracis): 52.3%
- inhibition at 30 µM (B. Anthracis; 30 μM): 91.2%
- inhibition at 10 µM (S. MRSA; 10 μM): 41.6%
- inhibition at 30 µM (S. MRSA; 30 μM): 69.4%

Structure (SMILES): CC(C)C(C(=O)O)N1C(=O)/C(=C2/C(=O)Nc3ccccc32)SC1=S (stereo not drawn) [Cmpd 17]
- B. Anthracis 10 μM (growth inhibition) (B. Anthracis): −2.28
- B. Anthracis 30 μM (growth inhibition) (B. Anthracis; 30 μM): 7.03
- S. MRSA 10 μM (growth inhibition) (S. MRSA; 10 μM): 14.85
- S. MRSA 30 μM (growth inhibition) (S. MRSA; 30 μM): 46.76

Structure (SMILES): CC(=O)C(Cc1ccccc1)N1C(=O)/C(=C2/C(=O)Nc3cc(Cl)c(Cl)cc32)NC1=S (stereo not drawn) [Cmpd 49]
- inhibition at 3 µM (B. Anthracis): 1.73%
- inhibition at 10 µM (B. Anthracis): -7.49%
- inhibition at 30 µM (B. Anthracis; 30 μM): 97.2%
- inhibition at 3 µM (S. MRSA): -7.73%
- inhibition at 10 µM (S. MRSA; 10 μM): -20.3%
- inhibition at 30 µM (S. MRSA; 30 μM): -26.3%

Structure (SMILES): COc1ccc(-c2nc(N3CCOCC3)c3sc(=O)n(-c4ccccc4)c3n2)cc1OC [Cmpd 8]
- inhibition at 10 µM (B. Anthracis): 5.32%
- inhibition at 30 µM (B. Anthracis; 30 μM): 35.5%
- inhibition at 10 µM (S. MRSA; 10 μM): -8.82%
- inhibition at 30 µM (S. MRSA; 30 μM): 1.47%

Structure (SMILES): O=C1NC(=O)C(=Cc2ccc(Br)s2)C(=O)N1 [Cmpd 18]
- inhibition at 3 µM (B. Anthracis): 0%
- inhibition at 10 µM (B. Anthracis): 0%
- inhibition at 30 µM (B. Anthracis; 30 μM): 0%
- inhibition at 3 µM (S. MRSA): 13.6%
- inhibition at 10 µM (S. MRSA; 10 μM): 15.2%
- inhibition at 30 µM (S. MRSA; 30 μM): 18.4%

Structure (SMILES): CCN1C(=O)NC(=O)/C(=C\c2ccc(-c3ccc(Cl)c(C(=O)O)c3)o2)C1=O [Cmpd 30]
- inhibition at 3 µM (B. Anthracis): -8.49%
- inhibition at 10 µM (B. Anthracis): 1%
- inhibition at 30 µM (B. Anthracis; 30 μM): -11.6%
- inhibition at 3 µM (S. MRSA): 1.47%
- inhibition at 10 µM (S. MRSA; 10 μM): -2.94%
- inhibition at 30 µM (S. MRSA; 30 μM): -4.41%

Structure (SMILES): O=C(O)[C@H](Cc1ccccc1)N1C(=O)/C(=C\c2ccc(-c3cc(Cl)cc(Cl)c3)o2)NC1=S [Cmpd 51]
- inhibition at 3 µM (B. Anthracis): -0.16%
- inhibition at 10 µM (B. Anthracis): -3.08%
- inhibition at 30 µM (B. Anthracis; 30 μM): 99.3%
- inhibition at 3 µM (S. MRSA): -0.61%
- inhibition at 10 µM (S. MRSA; 10 μM): -7.03%
- inhibition at 30 µM (S. MRSA; 30 μM): 85.3%
